Experimental data published in patent publication US10195284B2, “Compositions and methods for controlled localized delivery of bone forming therapeutic agents” (University of Rochester, priority 2013, dated 2019).

Tested on: β-catenin in MSCs
Assay: β-catenin agonism and cellular uptake of NPs in MSCs
Assay type: cell-based
Conditions: over 5 days of treatment
Procedure: To investigate the intracellular accessibility of this NPs, polymers were labeled with fluorescein isothiocyanate (FITC) fluorophore and incubated with MSCs (FIG. 44B). […] To validate β-catenin agonism of NP delivered GSK3β inhibitor XXVII, cells were treated with free GSK3β inhibitor XXVII and NP delivered GSK3β inhibitor XXVII.

SMILES: CN1CCN(S(=O)(=O)c2ccc(-c3cnc(N)c(C(=O)Nc4cccnc4)n3)cc2)CC1 [GSK3β inhibitor XXVII, 3-amino-6-{4-[(4-methyl-1-piperazinyl)sulfonyl]phenyl}-N-(3-pyridinyl)-2-pyrazinecarboxamide]
- β-catenin agonism / activation: potent agonist of β-catenin
